For 6 molecules, IC50 results are on record in patent publication US9340590B2 (priority 2011, dated 2016).

Assay in all cases: cell-based
One test deals with hNav1.5 (Homo sapiens, UniProt Q14524). The conditions noted are these: IonWorks Quattro, read-out: IWQ Use Nav1.5. A general note: The patch-clamp technique gives a direct electrical read-out from membranes.
The next test has as its target hNav1.3 (Homo sapiens, UniProt Q9NY46). The conditions noted are these: IonWorks Quattro, read-out: IWQ Use Nav1.3.
A further test concerns the target hNav1.7 (Homo sapiens, UniProt Q15858). Type of test: cell-based.
Setting [1] is: IonWorks Quattro, use-dependent block, hNav1.7, read-out: IWQ Use Nav1.7.

Read-outs that look alike come from different tables or passages of the source. Positions of bridges follow the written chain, without caps; N, C: chain ends. Non-standard residues stand in square brackets, D forms with d. Residues, ends and D or L forms follow the SMILES beside them. *: point of attachment. 1Nal = N[C@@H](Cc1cccc2ccccc12)C(=O)O; Pent4ynoyl = C#CCCC(=O)*; Abu = CC[C@H](N)C(=O)O

Chain of hNav1.3 (Q9NY46 whole entry, looked up): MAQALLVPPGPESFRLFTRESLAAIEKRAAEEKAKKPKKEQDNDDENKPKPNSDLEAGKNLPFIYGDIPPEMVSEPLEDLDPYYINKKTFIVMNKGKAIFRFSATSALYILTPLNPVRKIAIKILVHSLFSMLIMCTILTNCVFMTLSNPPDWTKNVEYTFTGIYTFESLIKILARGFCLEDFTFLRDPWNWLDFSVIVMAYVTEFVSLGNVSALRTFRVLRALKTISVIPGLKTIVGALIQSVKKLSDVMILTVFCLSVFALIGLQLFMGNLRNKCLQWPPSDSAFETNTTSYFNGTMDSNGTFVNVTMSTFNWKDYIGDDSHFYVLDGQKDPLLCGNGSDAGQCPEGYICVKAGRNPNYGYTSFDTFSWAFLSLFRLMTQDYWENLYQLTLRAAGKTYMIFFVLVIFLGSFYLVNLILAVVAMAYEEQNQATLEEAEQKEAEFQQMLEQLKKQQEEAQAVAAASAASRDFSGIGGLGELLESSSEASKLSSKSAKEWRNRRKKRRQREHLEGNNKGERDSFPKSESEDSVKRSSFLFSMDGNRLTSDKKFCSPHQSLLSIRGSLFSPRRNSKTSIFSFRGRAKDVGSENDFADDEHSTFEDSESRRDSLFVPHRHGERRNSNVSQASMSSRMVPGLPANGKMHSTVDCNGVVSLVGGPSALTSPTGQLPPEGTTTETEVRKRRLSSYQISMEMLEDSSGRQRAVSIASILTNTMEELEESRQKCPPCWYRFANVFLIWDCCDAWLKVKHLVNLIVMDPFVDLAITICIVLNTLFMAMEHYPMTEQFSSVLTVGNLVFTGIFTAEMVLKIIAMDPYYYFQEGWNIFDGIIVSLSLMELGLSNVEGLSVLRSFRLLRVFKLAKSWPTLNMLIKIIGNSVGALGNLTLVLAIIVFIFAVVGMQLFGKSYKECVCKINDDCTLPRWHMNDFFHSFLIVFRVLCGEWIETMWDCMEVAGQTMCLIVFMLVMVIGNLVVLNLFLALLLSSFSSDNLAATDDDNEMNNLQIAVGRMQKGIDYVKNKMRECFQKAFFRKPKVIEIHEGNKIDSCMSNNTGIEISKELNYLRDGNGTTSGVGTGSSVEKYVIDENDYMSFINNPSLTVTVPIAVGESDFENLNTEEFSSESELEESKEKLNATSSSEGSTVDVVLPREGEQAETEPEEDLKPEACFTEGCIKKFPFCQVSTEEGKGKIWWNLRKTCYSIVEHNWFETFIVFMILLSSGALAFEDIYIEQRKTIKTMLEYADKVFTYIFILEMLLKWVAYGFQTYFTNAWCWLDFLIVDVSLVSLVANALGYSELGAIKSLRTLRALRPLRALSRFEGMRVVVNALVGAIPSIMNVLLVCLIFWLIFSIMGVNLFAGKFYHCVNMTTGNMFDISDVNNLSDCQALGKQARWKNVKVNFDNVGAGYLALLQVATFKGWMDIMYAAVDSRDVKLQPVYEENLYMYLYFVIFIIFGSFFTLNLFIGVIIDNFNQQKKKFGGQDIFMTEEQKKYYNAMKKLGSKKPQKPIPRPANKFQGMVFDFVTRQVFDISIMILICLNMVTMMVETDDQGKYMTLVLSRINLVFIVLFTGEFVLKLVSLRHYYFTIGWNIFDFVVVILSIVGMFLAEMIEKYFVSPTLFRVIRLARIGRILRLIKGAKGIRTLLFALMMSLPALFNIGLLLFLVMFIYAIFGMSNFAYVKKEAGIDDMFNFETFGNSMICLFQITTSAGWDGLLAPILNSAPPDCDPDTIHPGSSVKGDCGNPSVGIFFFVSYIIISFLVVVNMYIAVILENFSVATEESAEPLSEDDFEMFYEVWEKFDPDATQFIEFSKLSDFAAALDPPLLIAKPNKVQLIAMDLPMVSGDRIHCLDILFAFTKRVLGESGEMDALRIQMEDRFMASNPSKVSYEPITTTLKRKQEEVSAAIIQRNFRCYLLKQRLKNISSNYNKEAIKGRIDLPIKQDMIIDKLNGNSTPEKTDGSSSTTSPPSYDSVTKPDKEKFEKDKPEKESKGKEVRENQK
Chain of hNav1.7 (Q15858 whole entry, looked up): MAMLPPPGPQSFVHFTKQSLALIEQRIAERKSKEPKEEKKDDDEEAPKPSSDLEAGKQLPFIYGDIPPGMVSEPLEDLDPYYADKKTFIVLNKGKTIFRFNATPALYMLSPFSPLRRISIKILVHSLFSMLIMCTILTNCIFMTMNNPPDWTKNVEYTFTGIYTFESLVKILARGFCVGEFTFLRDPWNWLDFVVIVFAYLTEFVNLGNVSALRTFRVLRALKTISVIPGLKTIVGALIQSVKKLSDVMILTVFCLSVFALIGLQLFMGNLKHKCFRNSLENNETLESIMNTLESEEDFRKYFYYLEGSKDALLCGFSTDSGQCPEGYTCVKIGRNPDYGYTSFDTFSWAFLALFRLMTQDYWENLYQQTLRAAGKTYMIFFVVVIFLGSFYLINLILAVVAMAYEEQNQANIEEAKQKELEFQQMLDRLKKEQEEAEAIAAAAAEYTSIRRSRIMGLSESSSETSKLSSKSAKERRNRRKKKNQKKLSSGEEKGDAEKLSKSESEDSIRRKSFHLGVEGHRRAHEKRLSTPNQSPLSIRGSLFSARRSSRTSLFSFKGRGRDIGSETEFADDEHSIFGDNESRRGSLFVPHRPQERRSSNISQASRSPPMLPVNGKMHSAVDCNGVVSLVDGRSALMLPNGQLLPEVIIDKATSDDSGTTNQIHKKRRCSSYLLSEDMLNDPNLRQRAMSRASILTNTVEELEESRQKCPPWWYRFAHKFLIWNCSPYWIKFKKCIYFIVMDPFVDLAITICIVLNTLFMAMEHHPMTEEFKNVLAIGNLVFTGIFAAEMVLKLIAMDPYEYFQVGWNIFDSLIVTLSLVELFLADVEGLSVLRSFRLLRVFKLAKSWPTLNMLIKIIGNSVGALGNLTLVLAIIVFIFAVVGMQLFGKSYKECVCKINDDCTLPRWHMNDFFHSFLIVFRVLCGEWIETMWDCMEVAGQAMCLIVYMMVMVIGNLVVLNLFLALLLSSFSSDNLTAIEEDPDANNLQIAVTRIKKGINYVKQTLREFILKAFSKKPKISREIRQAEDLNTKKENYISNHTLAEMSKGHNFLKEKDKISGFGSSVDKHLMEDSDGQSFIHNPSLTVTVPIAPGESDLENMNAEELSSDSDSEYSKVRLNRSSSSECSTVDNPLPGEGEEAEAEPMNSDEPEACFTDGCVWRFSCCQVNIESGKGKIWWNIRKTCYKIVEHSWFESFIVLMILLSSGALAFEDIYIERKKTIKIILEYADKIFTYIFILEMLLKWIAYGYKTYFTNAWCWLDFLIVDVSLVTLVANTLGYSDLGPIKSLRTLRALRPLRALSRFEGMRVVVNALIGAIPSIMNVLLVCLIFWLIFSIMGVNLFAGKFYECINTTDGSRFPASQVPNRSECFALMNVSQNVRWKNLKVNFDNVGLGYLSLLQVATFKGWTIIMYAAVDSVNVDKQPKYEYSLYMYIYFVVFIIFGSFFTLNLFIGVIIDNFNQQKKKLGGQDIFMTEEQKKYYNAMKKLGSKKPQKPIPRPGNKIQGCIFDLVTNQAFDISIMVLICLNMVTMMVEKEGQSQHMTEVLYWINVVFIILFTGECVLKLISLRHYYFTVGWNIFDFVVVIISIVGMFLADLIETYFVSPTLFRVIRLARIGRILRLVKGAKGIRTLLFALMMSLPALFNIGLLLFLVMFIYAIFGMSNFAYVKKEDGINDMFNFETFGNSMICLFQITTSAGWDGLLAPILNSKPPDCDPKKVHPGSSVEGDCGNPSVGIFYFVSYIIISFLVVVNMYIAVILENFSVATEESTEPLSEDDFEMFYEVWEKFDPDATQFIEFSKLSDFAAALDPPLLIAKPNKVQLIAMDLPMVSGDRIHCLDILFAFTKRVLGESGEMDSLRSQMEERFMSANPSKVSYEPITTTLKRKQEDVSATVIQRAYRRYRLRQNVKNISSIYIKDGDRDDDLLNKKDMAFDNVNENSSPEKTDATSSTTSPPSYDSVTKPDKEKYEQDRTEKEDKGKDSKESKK

For `CC[C@H](C)[C@@H]1NC(=O)[C@@H]2CSSC[C@@H]3NC(=O)[C@H](C(C)C)NC(=O)[C@H](CC(C)C)NC(=O)[C@H](CC(N)=O)NC(=O)[C@@H]4CCCN4C(=O)[C@H](CCCNC(=N)N)NC(=O)[C@H](CSSC[C@H](NC(=O)[C@@H](N)CC(=O)O)C(=O)N[C@@H](CC(C)C)C(=O)NCC(=O)N[C@@H](Cc4ccccc4Cl)C(=O)N[C@@H](CCSC)C(=O)N[C@@H](CCCNC(=N)N)C(=O)N[C@@H](CCCCN)C(=O)N2)NC(=O)[C@H](CSSC[C@@H](C(=O)N[C@@H](CCCCN)C(=O)N[C@@H](Cc2ccc(O)cc2)C(=O)N[C@H](C(=O)N[C@@H](Cc2ccccc2)C(N)=O)C(C)C)NC(=O)[C@H](Cc2c[nH]c4ccccc24)NC(=O)[C@H](CCCCN)NC(=O)[C@H](Cc2c[nH]cn2)NC(=O)[C@H]([C@@H](C)O)NC(=O)[C@H](CCCNC(=N)N)NC(=O)[C@H](CO)NC3=O)NC(=O)[C@H](CCCCN)NC(=O)[C@H](CC(=O)O)NC(=O)[C@H](CC(N)=O)NC(=O)[C@H](CC(=O)O)NC(=O)[C@@H]2CCCN2C1=O` [compound 689], the IC50 on hNav1.5 (use-dependent protocol, hNav1.5) is above 5000 nM; on hNav1.3 (use-dependent protocol, hNav1.3) it was 110 nM; at hNav1.7 (IonWorks Quattro, use-dependent protocol, hNav1.7, read-out: IWQ Use Nav1.7) it was 130 nM.
For `CC[C@H](C)[C@@H]1NC(=O)[C@@H]2CSSC[C@@H]3NC(=O)[C@H](C(C)C)NC(=O)[C@H](CC(C)C)NC(=O)[C@H](CC(N)=O)NC(=O)[C@@H]4CCCN4C(=O)[C@H](CCCNC(=N)N)NC(=O)[C@H](CSSC[C@H](NC(=O)[C@@H](N)CC(=O)O)C(=O)N[C@@H](CC(C)C)C(=O)NCC(=O)N[C@@H](C)C(=O)N[C@@H](CCSC)C(=O)N[C@@H](CCCNC(=N)N)C(=O)N[C@@H](CCCCN)C(=O)N2)NC(=O)[C@H](CSSC[C@@H](C(=O)N[C@@H](CCCCN)C(=O)N[C@@H](Cc2ccc(O)cc2)C(=O)N[C@@H](Cc2cccc4ccccc24)C(=O)N[C@@H](Cc2ccccc2)C(N)=O)NC(=O)[C@H](Cc2c[nH]c4ccccc24)NC(=O)[C@H](CCCNC(=N)N)NC(=O)[C@H](Cc2c[nH]cn2)NC(=O)[C@H]([C@@H](C)O)NC(=O)[C@H](CCCNC(=N)N)NC(=O)[C@H](CO)NC3=O)NC(=O)[C@H](CCCCN)NC(=O)[C@H](CC(=O)O)NC(=O)[C@H](CC(N)=O)NC(=O)[C@H](CC(=O)O)NC(=O)[C@@H]2CCCN2C1=O` [compound 420] (H-DCLGAMRKCIPDNDKCCRPNLVCSRTHRWCKY[1Nal]F-NH2; disulfide 2-17, 9-23, 16-30), the IC50 was 7500 nM on hNav1.5 (use-dependent block, hNav1.5); 320 nM at hNav1.3 (use-dependent block, hNav1.3); 200 nM at hNav1.7 (setting [1]).
Taken in the same sequence, the figures for `C#CCCC(=O)N[C@@H](CC(=O)O)C(=O)N[C@H]1CSSC[C@@H]2NC(=O)[C@@H]3CSSC[C@@H](C(=O)N[C@@H](CCCCN)C(=O)N[C@@H](Cc4ccc(O)cc4)C(=O)N[C@H](C(=O)N[C@@H](Cc4ccccc4)C(N)=O)C(C)C)NC(=O)[C@H](Cc4c[nH]c5ccccc45)NC(=O)[C@H](CCCNC(=N)N)NC(=O)[C@H](Cc4c[nH]cn4)NC(=O)[C@H]([C@@H](C)O)NC(=O)[C@H](CCCNC(=N)N)NC(=O)[C@H](CO)NC(=O)[C@H](CSSC[C@H](NC(=O)[C@H](CCCCN)NC(=O)[C@H](CCCNC(=N)N)NC(=O)[C@H](CC(C)C)NC(=O)[C@H](CC)NC(=O)CNC(=O)[C@H](CC(C)C)NC1=O)C(=O)N[C@@H]([C@@H](C)CC)C(=O)N1CCC[C@H]1C(=O)N[C@@H](CC(=O)O)C(=O)N[C@@H](CC)C(=O)N[C@@H](CC(=O)O)C(=O)N[C@@H](CCCCN)C(=O)N3)NC(=O)[C@H](C(C)C)NC(=O)[C@H](CC(C)C)NC(=O)[C@H](CC(N)=O)NC(=O)[C@@H]1CCCN1C(=O)[C@H](CCCNC(=N)N)NC2=O` [compound 807] (Pent4ynoyl-DCLG[Abu]LRKCIPD[Abu]DKCCRPNLVCSRTHRWCKYVF-NH2; disulfide 2-17, 9-23, 16-30) were 36800 nM, 900 nM and 540 nM.
In the case of `CC[C@H](C)[C@@H]1NC(=O)[C@@H]2CSSC[C@@H]3NC(=O)[C@H](C(C)C)NC(=O)[C@H](CC(C)C)NC(=O)[C@H](CC(N)=O)NC(=O)[C@@H]4CCCN4C(=O)[C@H](CCCNC(=N)N)NC(=O)[C@H](CSSC[C@H](NC(=O)[C@@H](N)CC(=O)O)C(=O)N[C@@H](CC(C)C)C(=O)NCC(=O)N[C@@H](Cc4ccccc4)C(=O)N[C@@H](CCSC)C(=O)N[C@@H](CCCNC(=N)N)C(=O)N[C@@H](CCCCN)C(=O)N2)NC(=O)[C@H](CSSC[C@@H](C(=O)N[C@@H](CCCCN)C(=O)N[C@@H](Cc2ccc(O)cc2)C(=O)N[C@@H](Cc2c[nH]c4ccccc24)C(=O)N[C@@H](Cc2ccccc2)C(N)=O)NC(=O)[C@H](Cc2c[nH]c4ccccc24)NC(=O)[C@H](CCCNC(=N)N)NC(=O)[C@H](Cc2c[nH]cn2)NC(=O)[C@H]([C@@H](C)O)NC(=O)[C@H](CCCNC(=N)N)NC(=O)[C@H](CO)NC3=O)NC(=O)[C@H](CCCCN)NC(=O)[C@H](CC(=O)O)NC(=O)[C@H](CC(N)=O)NC(=O)[C@H](CC(=O)O)NC(=O)[C@@H]2CCCN2C1=O` [compound 444] (H-DCLGFMRKCIPDNDKCCRPNLVCSRTHRWCKYWF-NH2; disulfide 2-17, 9-23, 16-30), the IC50 is above 5000 nM at hNav1.5 (use-dependent block, hNav1.5); 40 nM on hNav1.3 (use-dependent block, hNav1.3); 30 nM at hNav1.7 (setting [1]).
As to `CSCC[C@@H]1NC(=O)[C@H](Cc2ccccc2)NC(=O)CNC(=O)[C@H](CC(C)C)NC(=O)[C@@H](NC(=O)[C@@H](N)CC(=O)O)CSSC[C@@H]2NC(=O)[C@@H]3CSSC[C@@H](C(=O)N[C@@H](CCCCN)C(=O)N[C@@H](Cc4ccc(O)cc4)C(=O)N[C@H](C(=O)N[C@@H](Cc4ccccc4)C(N)=O)C(C)C)NC(=O)[C@H](Cc4c[nH]c5ccccc45)NC(=O)[C@H](CCCCN)NC(=O)[C@H](Cc4cnc[nH]4)NC(=O)[C@H]([C@@H](C)O)NC(=O)[C@H](CCCNC(=N)N)NC(=O)[C@H](CO)NC(=O)[C@H](CSSC[C@H](NC(=O)[C@H](CCCCN)NC(=O)[C@H](CCCNC(=N)N)NC1=O)C(=O)N[C@@H](CCCNC(=N)N)C(=O)N1CCC[C@H]1C(=O)N[C@@H](CC(=O)O)C(=O)N[C@@H](CC(N)=O)C(=O)N[C@@H](CC(=O)O)C(=O)N[C@@H](CCCCN)C(=O)N3)NC(=O)[C@H](C(C)C)NC(=O)[C@H](CC(C)C)NC(=O)[C@H](CC(N)=O)NC(=O)[C@@H]1CCCN1C(=O)[C@H](CCCNC(=N)N)NC2=O` [compound 66] (H-DCLGFMRKCRPDNDKCCRPNLVCSRTHKWCKYVF-NH2; disulfide 2-17, 9-23, 16-30), the figures for the IC50 on hNav1.5 (Use), on hNav1.3 (Use) and against hNav1.7 were 15200 nM, 110 nM and 160 nM, respectively.
As for `CC[C@H](C)[C@@H]1NC(=O)[C@@H]2CSSC[C@@H]3NC(=O)[C@H](C(C)C)NC(=O)[C@H](CC(C)C)NC(=O)[C@H](CC(N)=O)NC(=O)[C@@H]4CCCN4C(=O)[C@H](CCCNC(=N)N)NC(=O)[C@H](CSSC[C@H](NC(=O)[C@@H](N)CC(=O)O)C(=O)N[C@@H](CC(C)C)C(=O)NCC(=O)N[C@@H](C)C(=O)N[C@@H](Cc4ccccc4)C(=O)N[C@@H](CCCNC(=N)N)C(=O)N[C@@H](CCCCN)C(=O)N2)NC(=O)[C@H](CSSC[C@@H](C(=O)N[C@@H](CCCCN)C(=O)N[C@@H](Cc2ccc(O)cc2)C(=O)N[C@H](C(=O)N[C@@H](Cc2ccccc2)C(=O)O)C(C)C)NC(=O)[C@H](Cc2c[nH]c4ccccc24)NC(=O)[C@H](CCSC)NC(=O)[C@H](Cc2c[nH]cn2)NC(=O)[C@H]([C@@H](C)O)NC(=O)[C@H](CCCNC(=N)N)NC(=O)[C@H](CO)NC3=O)NC(=O)[C@H](CCCCN)NC(=O)[C@H](CC(=O)O)NC(=O)[C@H](CC(N)=O)NC(=O)[C@H](CC(=O)O)NC(=O)[C@@H]2CCCN2C1=O` [compound 831] (H-DCLGAFRKCIPDNDKCCRPNLVCSRTHMWCKYVF-OH; disulfide 2-17, 9-23, 16-30), the IC50 was above 5000 nM on hNav1.5 (use-dependent block, hNav1.5); 1600 nM on hNav1.3 (use-dependent block, hNav1.3); above 5000 nM on hNav1.7 (setting [1]).
